Assay results taken from patent publication US9751875B2, “Quinine compounds, and optical isomers, preparation method and medical use thereof” (BEIJING FSWELCOME TECHNOLOGY DEVELOPMENT CO., LTD., priority 2013, dated 2017).
Like-named read-outs stand apart in the source and are kept apart here.

Assays:
[1] = system: tracheal smooth muscle from guinea pigs (contraction induced by 3 × 10^−6 mol/L of CCh); test: Antagonism in vitro of contraction of isolated tracheal smooth muscle from guinea pigs induced by carbachol (CCh); format: cell-based, guinea pig; details: cumulative dosing
Description: Preparation of the Isolated Tracheal Smooth Muscle Specimen from a Guinea Pig:
After a guinea pig was narcotized with urethane, the trachea between the throat and carina of the guinea pig was taken out rapidly, and placed in the Krebs-Henseleit (K-H) solution (composition (g/L): NaCl 6.92, KCl 0.35, CaCl2 0.28, KH2PO4 0.16, MgSO4.7H2O 0.4568, NaHCO3 2.1, Glucose 2.0) with a mixture gas of 5% CO2 and 95% O2 purged. After loose connective tissues and fats around the trachea were separated, the trachea was cut into trachea pieces having a width of about 3 mm and a length of 20 mm by a surgical scissor, with both ends of the trachea piece ligated with 4˜0 silk suture, and then placed into a thermostatic bath containing 5 ml of K—H solution (pH 7.4) at 37° C., with the mixture gas of 5% CO2 and 95% O2 continuously purged. A muscle tension transducer was connected to the upper end so as to apply 1.0 g of resting tension to the specimen, the change of the tension was recorded, the culture solution was replaced every 20 min, and the test was started after being balanced for 60 min.
Administration method: After the trachea piece was stabilized, 3×10^−6 mol/L of CCh was added into a bath, and after the contractile tension of the trachea piece reached a peak level, the example compounds, ipratropium bromide and tiotropium bromide were added into a Magnus bath by a cumulative dosing regimen with a dosage of 10^−9˜10^−5 mol, respectively, and the diastolic condition of the trachea piece was observed: if no response occurred (below the threshold concentration), a next dosage was continued to be added in sequence; if response occurred, after it reached a diastolic plateau, a next dosage was further added. The above operation was repeated until the contractile curve reached the minimum value. Finally, 10^−6 mol/L of isoprenaline was added so that the maximum relaxation would be reached and the curve was recorded.
Statistical approach: The result was expressed as mean ±standard deviation, and counted by Sigma Stat statistical package. The data was analyzed by using variance analysis, the comparison among means of a plurality of specimen was performed by using Student-Newman-Keuls(SNK) test; statistical significant level α=0.05 (bilateral).
Compounds shown in Table 5 were further prepared according to the present invention, and their IC50 […] of resistance to the contraction of tracheal smooth muscle from guinea pigs induced by a concentration of 3×10^−6 mol/L of CCh was determined.

[2] = system: m1, m2 and m3 subtypes of M receptor; test: Competitive [3H]-QNB binding on membranes of CHO cells transfected with m1, m2, m3; selectivity on subtypes of M receptor; details: ratio of Ki, n = 6
[3] = system: tracheal smooth muscle from guinea pigs (contraction induced by 3 × 10^−6 mol/L of CCh); test: Antagonism in vitro of contraction of isolated tracheal smooth muscle from guinea pigs induced by carbachol (CCh); format: cell-based, guinea pig
[4] = system: bronchus in guinea pigs (contractile response induced by Mch); test: Antagonism of contractile response of bronchus in guinea pigs induced by methacholine (Mch); airway resistance and pulmonary dynamic compliance; format: in vivo, guinea pig; details: Mch 10 μg/kg iv after 30 min; for Cdyn(ml/cm H2O) / Raw (cm H2O/ml/s): Mean ± S.E.M
Description: Determination of tidal volume, airway flow rate, and transpulmonary pressure: 1.5 g/kg of urethane was intraperitoneally injected to narcotize the guinea pig. The guinea pig was fixed supinely and treated with tracheal intubation, and the external jugular vein was separated and an indwelling needle was inserted; the guinea pig was enclosed into a body plethysmograph, a blunt needle for intubation into thoracic cavity was inserted between ribs 4˜5 of the prothorax of the guinea pig, and the intrathoracic pressure could be measured (with a negative value of a water column of a water manometer and a fluctuation with the breath of the guinea pig as marks). After stabilization, the values of the tidal volume, airway flow rate and transpulmonary pressure of the guinea pig prior to administration of Mch were recorded by a MedLab biological signal collection and processing system as base values. 10 μg/kg body weight of Mch was intravenously injected. The changes of the airway flow rate, tidal volume and transpulmonary pressure of the guinea pig within 5 minutes were observed. Calculation of Raw and Cdyn: the changes of the increased percentage of Raw value and the decreased percentage of Cdyn after […] of Mch were calculated.
Calculation formulas of Raw and Cdyn were respectively: […]
Dose-effect relationship: For each of the example compounds, 27 guinea pigs were randomly divided into […]: a solvent control group with […], a group with 1 μg/kg of the example compounds 4, 10, 14, and 26, a group with 3 μg/kg of the example compounds 4, 10, 14, and 26 and a group with 10 μg/kg of the example compounds 4, 10, 14, and 26; after 30 min from the dropping of the above concentration of drugs in the airway, 10 μg/kg body weight of Mch was intravenously injected for excitation, and airway resistance (Raw) and pulmonary dynamic compliance (Cdyn) within 5 min were determined. […]

[5] = read-out: IC50 (μM), antagonism in vitro against the contraction of the tracheal smooth muscle induced by CCh, 3 × 10^−6 mol/L of CCh
[6] = Cavia porcellus, read-out: IC50 (μM), antagonism in vitro against the contraction of the tracheal smooth muscle induced by CCh, 3 × 10^−6 mol/L of CCh

OC(CO[C@H]1C[N+]2(CCCOc3ccccc3)CCC1CC2)(c1ccccc1)C1CCCC1.[Br-] (stereo partly drawn) [Example 1, (2R,3S)-3-[(2-cyclopentyl-2-hydroxyl-2-phenyl)ethoxyl]-1-(3-phenoxypropyl)-1-azabicyclo[2,2,2]octane bromide]
IC50 [1, 5]: 0.767 µM
Selectivity m1/m2, Mx/My = Ki(y)/Ki(x) [2]: 34.13
Selectivity m1/m3, Mx/My = Ki(y)/Ki(x) [2]: 0.358
Selectivity m2/m3, Mx/My = Ki(y)/Ki(x) [2]: 0.0105
Onset time [3]: 6.89 min
Time for eliminating inhibition effect (min) [3]: more than 300 min

OC(CO[C@@H]1C[N+]2(CCCOc3ccccc3)CCC1CC2)(c1ccccc1)C1CCCC1.[Br-] (stereo partly drawn) [Example 4, (2R,3R)-3-[(2-cyclopentyl-2-hydroxyl-2-phenyl)ethoxyl]-1-(3-phenoxypropyl)-1-azabicyclo[2,2,2]octane bromide]
IC50 [1, 5]: 0.0278 µM
Selectivity m1/m2, Mx/My = Ki(y)/Ki(x) [2]: 30.2
Selectivity m1/m3, Mx/My = Ki(y)/Ki(x) [2]: 0.332
Selectivity m2/m3, Mx/My = Ki(y)/Ki(x) [2]: 0.011
Onset time [3]: 6.37 min
Time for eliminating inhibition effect (min) [3]: more than 300 min
inhibition ratio against the decrease of pulmonary dynamic compliance ([4]; 1 μg/kg dropped in the airway): 11.2%
inhibition ratio against the increase of airway resistance ([4]; 1 μg/kg dropped in the airway): 64.2%
Cdyn(ml/cm H2O) ([4]; 1 μg/kg dropped in the airway): 0.105 ± 0.012 ml/cm H2O
Raw (cm H2O/ml/s) ([4]; 1 μg/kg dropped in the airway): 0.733 ± 0.088 cm H2O/ml/s
inhibition ratio against the decrease of pulmonary dynamic compliance ([4]; 3 μg/kg dropped in the airway): 46.6%
inhibition ratio against the increase of airway resistance ([4]; 3 μg/kg dropped in the airway): 86.1%
Cdyn(ml/cm H2O) ([4]; 3 μg/kg dropped in the airway): 0.137 ± 0.015 ml/cm H2O
Raw (cm H2O/ml/s) ([4]; 3 μg/kg dropped in the airway): 0.552 ± 0.060 cm H2O/ml/s
inhibition ratio against the decrease of pulmonary dynamic compliance ([4]; 10 μg/kg dropped in the airway): 50.0%
inhibition ratio against the increase of airway resistance ([4]; 10 μg/kg dropped in the airway): 90.8%
Cdyn(ml/cm H2O) ([4]; 10 μg/kg dropped in the airway): 0.196 ± 0.017 ml/cm H2O
Raw (cm H2O/ml/s) ([4]; 10 μg/kg dropped in the airway): 0.513 ± 0.071 cm H2O/ml/s

C[N+]1(C)CCC(OC(=O)C(c2ccccc2)c2ccccc2)CC1.[I-] [Example 4-DAMP, 4-DAMP, reference compound]
Selectivity m1/m2, Mx/My = Ki(y)/Ki(x) [2]: 1.66
Selectivity m1/m3, Mx/My = Ki(y)/Ki(x) [2]: 0.095
Selectivity m2/m3, Mx/My = Ki(y)/Ki(x) [2]: 0.058

O[C@@](COC1C[N+]2(CCCOc3ccccc3)CCC1CC2)(c1ccccc1)C1CCCCC1.[Br-] (stereo partly drawn) [Example 10, (2R,3R)-3-[(2-cyclohexyl-2-hydroxyl-2-phenyl)ethoxyl]-1-(3-phenoxypropyl)-1-azabicyclo[2,2,2]octane bromide]
IC50 [1, 6]: 0.0227 µM
Onset time [3]: 6.24 min
Time for eliminating inhibition effect (min) [3]: more than 300 min
inhibition ratio against the decrease of pulmonary dynamic compliance ([4]; 1 μg/kg dropped in the airway): 10.9%
inhibition ratio against the increase of airway resistance ([4]; 1 μg/kg dropped in the airway): 63.7%
Cdyn(ml/cm H2O) ([4]; 1 μg/kg dropped in the airway): 0.098 ± 0.009 ml/cm H2O
Raw (cm H2O/ml/s) ([4]; 1 μg/kg dropped in the airway): 0.745 ± 0.089 cm H2O/ml/s
inhibition ratio against the decrease of pulmonary dynamic compliance ([4]; 3 μg/kg dropped in the airway): 45.9%
inhibition ratio against the increase of airway resistance ([4]; 3 μg/kg dropped in the airway): 84.5%
Cdyn(ml/cm H2O) ([4]; 3 μg/kg dropped in the airway): 0.135 ± 0.007 ml/cm H2O
Raw (cm H2O/ml/s) ([4]; 3 μg/kg dropped in the airway): 0.563 ± 0.057 cm H2O/ml/s
inhibition ratio against the decrease of pulmonary dynamic compliance ([4]; 10 μg/kg dropped in the airway): 49.8%
inhibition ratio against the increase of airway resistance ([4]; 10 μg/kg dropped in the airway): 91.3%
Cdyn(ml/cm H2O) ([4]; 10 μg/kg dropped in the airway): 0.189 ± 0.015 ml/cm H2O
Raw (cm H2O/ml/s) ([4]; 10 μg/kg dropped in the airway): 0.531 ± 0.092 cm H2O/ml/s

OC(CO[C@@H]1C[N+]2(CCCOc3ccccc3)CCC1CC2)(c1ccccc1)C1CCC1.[Br-] (stereo partly drawn) [Example 16, (2R,3R)-3-[(2-cyclobutyl-2-hydroxyl-2-phenyl)ethoxyl]-1-(3-phenoxypropyl)-1-azabicyclo[2,2,2]octane bromide]
IC50 [1, 5]: 0.0573 µM
Selectivity m1/m2, Mx/My = Ki(y)/Ki(x) [2]: 13.5
Selectivity m1/m3, Mx/My = Ki(y)/Ki(x) [2]: 0.67
Selectivity m2/m3, Mx/My = Ki(y)/Ki(x) [2]: 0.037
Onset time [3]: 6.38 min
Time for eliminating inhibition effect (min) [3]: more than 300 min

O[C@@](CO[C@@H]1C[N+]2(CCOc3ccccc3)CCC1CC2)(c1ccccc1)C1CCCC1.[Br-] [Example 26, (2R,3R)-3-[(2-cyclopentyl-2-hydroxyl-2-phenyl)ethoxyl]-1-(2-phenoxyethyl)-1-azabicyclo[2,2,2]octane bromide]
IC50 [1, 6]: 0.0235 µM
Onset time [3]: 6.14 min
Time for eliminating inhibition effect (min) [3]: more than 300 min
inhibition ratio against the decrease of pulmonary dynamic compliance ([4]; 1 μg/kg dropped in the airway): 11.0%
inhibition ratio against the increase of airway resistance ([4]; 1 μg/kg dropped in the airway): 64.4%
Cdyn(ml/cm H2O) ([4]; 1 μg/kg dropped in the airway): 0.103 ± 0.014 ml/cm H2O
Raw (cm H2O/ml/s) ([4]; 1 μg/kg dropped in the airway): 0.739 ± 0.085 cm H2O/ml/s
inhibition ratio against the decrease of pulmonary dynamic compliance ([4]; 3 μg/kg dropped in the airway): 47.1%
inhibition ratio against the increase of airway resistance ([4]; 3 μg/kg dropped in the airway): 87.2%
Cdyn(ml/cm H2O) ([4]; 3 μg/kg dropped in the airway): 0.143 ± 0.016 ml/cm H2O
Raw (cm H2O/ml/s) ([4]; 3 μg/kg dropped in the airway): 0.531 ± 0.063 cm H2O/ml/s
inhibition ratio against the decrease of pulmonary dynamic compliance ([4]; 10 μg/kg dropped in the airway): 49.9%
inhibition ratio against the increase of airway resistance ([4]; 10 μg/kg dropped in the airway): 92.1%
Cdyn(ml/cm H2O) ([4]; 10 μg/kg dropped in the airway): 0.205 ± 0.018 ml/cm H2O
Raw (cm H2O/ml/s) ([4]; 10 μg/kg dropped in the airway): 0.493 ± 0.083 cm H2O/ml/s

CC[N+](CC)(CC)CCOc1cccc(OCC[N+](CC)(CC)CC)c1OCC[N+](CC)(CC)CC [Gallamine, reference compound]
Selectivity m1/m2, Mx/My = Ki(y)/Ki(x) [2]: 0.011
Selectivity m1/m3, Mx/My = Ki(y)/Ki(x) [2]: 0.676
Selectivity m2/m3, Mx/My = Ki(y)/Ki(x) [2]: 60.26

CN1CCN(CC(=O)N2c3ccccc3C(=O)Nc3cccnc32)CC1 [Pirenzepine, reference compound]
Selectivity m1/m2, Mx/My = Ki(y)/Ki(x) [2]: 169.82
Selectivity m1/m3, Mx/My = Ki(y)/Ki(x) [2]: 13.49
Selectivity m2/m3, Mx/My = Ki(y)/Ki(x) [2]: 0.079

(2R,3S),(2S,3R)-3-[(2-cyclopentyl-2-hydroxyl-2-phenyl)ethoxyl]-1-(3-phenoxypropyl)-1-azabicyclo[2,2,2]octane bromide [Example 5]
IC50 ([1]; 3 × 10^−6 mol/L of CCh, read-out: IC50 (μM), antagonism in vitro against the contraction of the tracheal smooth muscle induced by CCh): 1.03 µM
Selectivity m1/m2, Mx/My = Ki(y)/Ki(x) [2]: 45.6
Selectivity m1/m3, Mx/My = Ki(y)/Ki(x) [2]: 0.502
Selectivity m2/m3, Mx/My = Ki(y)/Ki(x) [2]: 0.011
Onset time [3]: 7.01 min
Time for eliminating inhibition effect (min) [3]: more than 300 min
